Source: patent US10414811B2, “Protease-resistant lipidated GLP-1 analogs” (MEDIMMUNE LIMITED, priority 2015, dated 2019)
Where two headings read alike, the source gives them in different places. Numbered stars: 1 amine (or outer) side, 2 acyl side, 3 side chain; on linkers, the order of the positions; unused ones are H or OH. Square brackets hold non-standard residues; d marks the D form. Side chains are listed from the residue outwards. Peptide text beside a SMILES is read from it. * marks the point of attachment. C16 diacid = O=C(O)CCCCCCCCCCCCCCC(=O)*; γGlu = O=C(O)[C@H](CCC(=O)[*:2])N[*:1]; αMeF = C[C@](N)(Cc1ccccc1)C(=O)O; αMeK = C[C@](N)(CCCCN)C(=O)O; Lauroyl = CCCCCCCCCCCC(=O)*; AEEA = NCCOCCOCC(=O)O; Aib = CC(C)(N)C(=O)O

Tests used:
Type in all cases: cell-based
[1] = biological target: T1, human GLP-1 receptor (GLP-1R) (Homo sapiens, UniProt P43220); test: cAMP assay, human GLP-1R cells
T1 construct: expressed in transfected cells
In short: (§1)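 Peptide-stimulated cAMP measured by two-step HTRF after a 30 min room-temperature incubation with receptor-expressing cells (hGLP-1R, hGIPR at 1×10^5 cells/ml; hGCGR at 2×10^5 cells/ml). Duplicate dilutions; EC50 from 4-parameter logistic fit of % Delta F.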

[2] = biological target: T2, human glucagon receptor (GCGR) (Homo sapiens, UniProt P47871); test: cAMP assay, human GCGR cells
T2 construct: expressed in transfected cells
In short: as §1

[3] = biological target: T3, human glucose-dependent insulinotropic peptide receptor (GIPR) (Homo sapiens, UniProt P48546); test: cAMP assay, human GIPR cells
T3 construct: expressed in transfected cells
T3 sequence (P48546 22-466): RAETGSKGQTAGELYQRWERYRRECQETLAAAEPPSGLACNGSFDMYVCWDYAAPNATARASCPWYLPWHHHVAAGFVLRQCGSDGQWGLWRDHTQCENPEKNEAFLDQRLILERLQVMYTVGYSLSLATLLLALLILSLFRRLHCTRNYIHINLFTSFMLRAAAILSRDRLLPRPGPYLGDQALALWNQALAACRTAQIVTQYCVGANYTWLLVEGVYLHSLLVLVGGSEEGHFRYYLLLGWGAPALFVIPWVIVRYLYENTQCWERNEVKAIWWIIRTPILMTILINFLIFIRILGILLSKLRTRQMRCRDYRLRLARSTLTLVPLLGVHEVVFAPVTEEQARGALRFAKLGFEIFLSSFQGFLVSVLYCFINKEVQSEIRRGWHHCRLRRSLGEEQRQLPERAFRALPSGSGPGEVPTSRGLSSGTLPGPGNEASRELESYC
In short: as §1

[4] = first run (n1), cAMP activity, read-out: Primary assay EC50 GLP-1R n1
[5] = mean of n1 and n2, read-out: Mean pM GLP-1R
[6] = second run (n2), cAMP activity, read-out: Primary assay EC50 GLP-1R n2
[7] = first run (n1), cAMP activity of substituted and mono-lipidated peptides, read-out: Primary assay EC50 Gluc-R
[8] = first run (n1), cAMP activity, read-out: Primary assay EC50 GIP-R
[9] = second run (n2), cAMP activity, read-out: Primary assay EC50 Gluc-R
[10] = second run (n2), cAMP activity, read-out: Primary assay EC50 GIP-R

T2 sequence (P47871 26-477): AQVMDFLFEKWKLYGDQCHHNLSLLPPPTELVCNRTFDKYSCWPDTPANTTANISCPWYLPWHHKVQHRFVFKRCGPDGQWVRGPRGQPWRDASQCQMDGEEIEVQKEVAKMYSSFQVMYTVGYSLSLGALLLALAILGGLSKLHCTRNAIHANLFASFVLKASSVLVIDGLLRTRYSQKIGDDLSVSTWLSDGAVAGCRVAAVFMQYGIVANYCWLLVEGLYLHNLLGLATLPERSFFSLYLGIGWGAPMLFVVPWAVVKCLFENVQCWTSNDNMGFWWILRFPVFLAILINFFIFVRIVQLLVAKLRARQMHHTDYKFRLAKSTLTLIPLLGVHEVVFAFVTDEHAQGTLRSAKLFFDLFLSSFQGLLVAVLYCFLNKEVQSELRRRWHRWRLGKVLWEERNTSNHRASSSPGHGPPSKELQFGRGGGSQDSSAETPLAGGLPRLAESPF
T1 sequence (P43220 24-463): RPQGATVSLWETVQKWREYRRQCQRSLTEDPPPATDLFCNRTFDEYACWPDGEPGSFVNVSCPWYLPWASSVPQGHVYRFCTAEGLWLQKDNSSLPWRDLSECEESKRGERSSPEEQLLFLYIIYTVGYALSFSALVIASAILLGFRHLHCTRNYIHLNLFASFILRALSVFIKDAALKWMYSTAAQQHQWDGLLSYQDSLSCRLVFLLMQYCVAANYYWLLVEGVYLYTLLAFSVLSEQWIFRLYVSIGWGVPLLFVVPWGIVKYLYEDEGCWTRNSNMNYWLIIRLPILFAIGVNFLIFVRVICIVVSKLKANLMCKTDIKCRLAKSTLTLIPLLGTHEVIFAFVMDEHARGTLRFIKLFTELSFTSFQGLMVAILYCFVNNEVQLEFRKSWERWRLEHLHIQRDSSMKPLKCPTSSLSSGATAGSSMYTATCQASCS

| EC50 [1, 4] [pM] | EC50 [1, 5] [pM] | EC50 [1, 6] [pM] | EC50 [2, 7] [nM] | EC50 [3, 8] [nM] | EC50 [2, 9] [nM] | EC50 [3, 10] [nM] | EC50 ([1]; bis-lipidated peptides, mean of n1 and n2, read-out: Primary assay EC50 Mean pM GLP-1R) [pM] | EC50 ([1]; bis-lipidated peptides, replicate n1, read-out: Primary assay EC50 GLP-1R n1) [pM] | EC50 ([1]; bis-lipidated peptides, replicate n2, read-out: Primary assay EC50 GLP-1R n2) [pM] | EC50 ([2]; bis-lipidated peptides, first replicate, read-out: Primary assay EC50 Gluc-R (n1)) [nM] | EC50 ([3]; bis-lipidated peptides, first replicate, read-out: Primary assay EC50 GIP-R (n1)) [nM] | EC50 ([1]; tris-lipidated peptides, mean of n1 and n2, read-out: Primary assay EC50 Mean pM GLP-1R) [pM] | EC50 ([1]; tris-lipidated peptides, replicate n1, read-out: Primary assay EC50 GLP-1R n1) [pM] | EC50 ([1]; tris-lipidated peptides, replicate n2, read-out: Primary assay EC50 GLP-1R n2) [pM] | EC50 ([2]; tris-lipidated peptides, second replicate, read-out: Primary assay EC50 Gluc-R (n2)) [nM] | EC50 ([3]; tris-lipidated peptides, first replicate, read-out: Primary assay EC50 GIP-R (n1)) [nM] | SMILES |
| --- | --- | --- | --- | --- | --- | --- | --- | --- | --- | --- | --- | --- | --- | --- | --- | --- | --- |
| 170 | 113 | 60 | ≥ 27 | ≥ 27 | – | – | – | – | – | – | – | – | – | – | – | – | CC[C@H](C)[C@H](NC(=O)[C@](C)(Cc1ccccc1)NC(=O)[C@H](CCC(=O)O)NC(=O)[C@](C)(CCCCN)NC(=O)[C@H](C)NC(=O)[C@H](C)NC(=O)[C@H](CCC(=O)O)NC(=O)CNC(=O)[C@H](CCC(=O)O)NC(=O)[C@H](CC(C)C)NC(=O)[C@](C)(Cc1ccccc1)NC(=O)[C@H](CO)NC(=O)[C@](C)(CO)NC(=O)[C@@H](NC(=O)[C@H](CC(=O)O)NC(=O)[C@H](CO)NC(=O)[C@@H](NC(=O)[C@](C)(Cc1ccccc1)NC(=O)[C@H](CO)NC(=O)CNC(=O)[C@H](CCC(=O)O)NC(=O)C(C)(C)NC(=O)[C@@H](N)Cc1c[nH]cn1)[C@@H](C)O)C(C)C)C(=O)N[C@@H](C)C(=O)N[C@@](C)(Cc1ccccc1)C(=O)N[C@H](C(=O)N[C@H](C(=O)N[C@@H](CCCCNC(=O)CC[C@H](NC(=O)CC[C@H](NC(=O)CCCCCCCCCCCCCCCCC(=O)O)C(=O)O)C(=O)O)C(=O)NCC(=O)NCC(N)=O)C(C)C)C(C)C [compound 192] |
| 330 | 213 | 95 | ≥ 26 | ≥ 26 | ≥ 26 | ≥ 26 | – | – | – | – | – | – | – | – | – | – | CC[C@H](C)[C@H](NC(=O)[C@](C)(Cc1ccccc1)NC(=O)[C@H](CCC(=O)O)NC(=O)[C@](C)(CCCCN)NC(=O)[C@H](C)NC(=O)[C@H](C)NC(=O)[C@H](CCC(=O)O)NC(=O)CNC(=O)[C@H](CCC(=O)O)NC(=O)[C@H](CC(C)C)NC(=O)[C@](C)(Cc1ccccc1)NC(=O)[C@H](CO)NC(=O)[C@](C)(CO)NC(=O)[C@@H](NC(=O)[C@H](CC(=O)O)NC(=O)[C@H](CO)NC(=O)[C@@H](NC(=O)[C@](C)(Cc1ccccc1)NC(=O)[C@H](CO)NC(=O)CNC(=O)[C@H](CCC(=O)O)NC(=O)C(C)(C)NC(=O)[C@@H](N)Cc1c[nH]cn1)[C@@H](C)O)C(C)C)C(=O)N[C@@H](C)C(=O)N[C@@](C)(Cc1ccccc1)C(=O)N[C@H](C(=O)N[C@H](C(=O)N[C@@H](CCCCNC(=O)CC[C@H](NC(=O)CC[C@H](NC(=O)CC[C@H](NC(=O)CCCCCCCCCCCCCCCCC(=O)O)C(=O)O)C(=O)O)C(=O)O)C(=O)NCC(=O)NCC(N)=O)C(C)C)C(C)C [compound 193] |
| 240 | 154 | 68 | ≥ 28 | ≥ 28 | ≥ 28 | ≥ 28 | – | – | – | – | – | – | – | – | – | – | CC[C@H](C)[C@H](NC(=O)[C@](C)(Cc1ccccc1)NC(=O)[C@H](CCC(=O)O)NC(=O)[C@](C)(CCCCN)NC(=O)[C@H](C)NC(=O)[C@H](C)NC(=O)[C@H](CCC(=O)O)NC(=O)CNC(=O)[C@H](CCC(=O)O)NC(=O)[C@H](CC(C)C)NC(=O)[C@](C)(Cc1ccccc1)NC(=O)[C@H](CO)NC(=O)[C@](C)(CO)NC(=O)[C@@H](NC(=O)[C@H](CC(=O)O)NC(=O)[C@H](CO)NC(=O)[C@@H](NC(=O)[C@](C)(Cc1ccccc1)NC(=O)[C@H](CO)NC(=O)CNC(=O)[C@H](CCC(=O)O)NC(=O)C(C)(C)NC(=O)[C@@H](N)Cc1c[nH]cn1)[C@@H](C)O)C(C)C)C(=O)N[C@@H](C)C(=O)N[C@@](C)(Cc1ccccc1)C(=O)N[C@H](C(=O)N[C@H](C(=O)N[C@@H](CCCCNC(=O)CCCCCNC(=O)CCCCCCCCCCCCCCCCC(=O)O)C(=O)NCC(=O)NCC(N)=O)C(C)C)C(C)C [compound 194] |
| 170 | 107 | 46 | ≥ 27 | ≥ 27 | ≥ 27 | ≥ 27 | – | – | – | – | – | – | – | – | – | – | CC[C@H](C)[C@H](NC(=O)[C@](C)(Cc1ccccc1)NC(=O)[C@H](CCC(=O)O)NC(=O)[C@](C)(CCCCN)NC(=O)[C@H](C)NC(=O)[C@H](C)NC(=O)[C@H](CCC(=O)O)NC(=O)CNC(=O)[C@H](CCC(=O)O)NC(=O)[C@H](CC(C)C)NC(=O)[C@](C)(Cc1ccccc1)NC(=O)[C@H](CO)NC(=O)[C@](C)(CO)NC(=O)[C@@H](NC(=O)[C@H](CC(=O)O)NC(=O)[C@H](CO)NC(=O)[C@@H](NC(=O)[C@](C)(Cc1ccccc1)NC(=O)[C@H](CO)NC(=O)CNC(=O)[C@H](CCC(=O)O)NC(=O)C(C)(C)NC(=O)[C@@H](N)Cc1c[nH]cn1)[C@@H](C)O)C(C)C)C(=O)N[C@@H](C)C(=O)N[C@@](C)(Cc1ccccc1)C(=O)N[C@H](C(=O)N[C@H](C(=O)N[C@@H](CCCCNC(=O)CCCCCNC(=O)CCCCCNC(=O)CCCCCCCCCCCCCCCCC(=O)O)C(=O)NCC(=O)NCC(N)=O)C(C)C)C(C)C [compound 195] |
| – | – | – | – | – | – | – | 388 | 334 | 443 | ≥ 21.9 | ≥ 21.9 | – | – | – | – | – | CC[C@H](C)[C@H](NC(=O)[C@H](Cc1ccccc1)NC(=O)[C@H](CCC(=O)O)NC(=O)[C@](C)(CCCCN)NC(=O)[C@H](C)NC(=O)[C@H](C)NC(=O)[C@H](CCC(=O)O)NC(=O)CNC(=O)[C@H](CCC(=O)O)NC(=O)[C@H](CC(C)C)NC(=O)[C@H](Cc1ccc(O)cc1)NC(=O)[C@H](CO)NC(=O)[C@H](CO)NC(=O)[C@H](CCCCNC(=O)COCCOCCNC(=O)COCCOCCNC(=O)CC[C@H](NC(=O)CCCCCCCCCCCCCCC(=O)O)C(=O)O)NC(=O)[C@H](CC(=O)O)NC(=O)[C@H](CO)NC(=O)[C@@H](NC(=O)[C@](C)(Cc1ccccc1)NC(=O)[C@H](CO)NC(=O)CNC(=O)[C@H](CCC(=O)O)NC(=O)C(C)(C)NC(=O)[C@@H](N)Cc1c[nH]cn1)[C@@H](C)O)C(=O)N[C@@H](C)C(=O)N[C@@H](CCCCNC(=O)COCCOCCNC(=O)COCCOCCNC(=O)CC[C@H](NC(=O)CCCCCCCCCCCCCCC(=O)O)C(=O)O)C(=O)N[C@H](C(=O)N[C@H](C(=O)N[C@@H](CCC(=O)O)C(=O)NCC(=O)NCC(N)=O)C(C)C)C(C)C [compound 260] (H-H[Aib]EGS[αMeF]TSDK([AEEA-AEEA-γGlu-C16 diacid])SSYLEGEAA[αMeK]EFIAK([AEEA-AEEA-γGlu-C16 diacid])VVEGG-NH2; N-terminus assumed) |
| – | – | – | – | – | – | – | – | – | – | – | – | 130 | 96.7 | 164 | 19.7 | 19.7 | CCCCCCCCCCCC(=O)N[C@@H](CCC(=O)NCCOCCOCC(=O)NCCOCCOCC(=O)NCCCC[C@H](NC(=O)CNC(=O)[C@H](CCC(=O)O)NC(=O)[C@H](CC(C)C)NC(=O)[C@H](Cc1ccc(O)cc1)NC(=O)[C@H](CO)NC(=O)[C@H](CO)NC(=O)[C@H](CCCCNC(=O)COCCOCCNC(=O)COCCOCCNC(=O)CC[C@H](NC(=O)CCCCCCCCCCC)C(=O)O)NC(=O)[C@H](CC(=O)O)NC(=O)[C@H](CO)NC(=O)[C@@H](NC(=O)[C@](C)(Cc1ccccc1)NC(=O)[C@H](CO)NC(=O)CNC(=O)[C@H](CCC(=O)O)NC(=O)C(C)(C)NC(=O)[C@@H](N)Cc1c[nH]cn1)[C@@H](C)O)C(=O)N[C@@H](C)C(=O)N[C@@H](C)C(=O)N[C@@](C)(CCCCN)C(=O)N[C@@H](CCC(=O)O)C(=O)N[C@@H](Cc1ccccc1)C(=O)N[C@H](C(=O)N[C@@H](CCCCNC(=O)COCCOCCNC(=O)COCCOCCNC(=O)CC[C@H](NC(=O)CCCCCCCCCCC)C(=O)O)C(=O)N[C@@H](Cc1ccccc1)C(=O)N[C@H](C(=O)N[C@H](C(=O)N[C@@H](CCC(=O)O)C(=O)NCC(=O)NCC(N)=O)C(C)C)C(C)C)[C@@H](C)CC)C(=O)O [compound 440] (H-H[Aib]EGS[αMeF]TSDK([AEEA-AEEA-γGlu-Lauroyl])SSYLEGK([AEEA-AEEA-γGlu-Lauroyl])AA[αMeK]EFIK([AEEA-AEEA-γGlu-Lauroyl])FVVEGG-NH2; N-terminus assumed) |
